Measurements as given in publication PMC6100113, “Involvement of CYP4F2 in the Metabolism of a Novel Monophosphate Ester Prodrug of Gemcitabine and Its Interaction Potential In Vitro” (Molecules : A Journal of Synthetic Chemistry and Natural …, 2018).

What was measured:
[1] = Metabolite identification by UPLC/Triple TOF MS in human intestinal microsomes; format: in vitro ADME; parameters: key: √: metabolites were detected by high-resolution mass spectrometry; details: Compound-3 10 μM, NADPH, 60 min, HRMS
Method: For metabolite identification, a higher concentration of Compound-3 (10 μM) was incubated with liver microsomes (1 mg/mL) in the presence of NADPH (1 mM) and primary human hepatocytes at a density of 1 × 10^6 cell/mL. Samples were collected at 0 min and 60 min with the addition of ice-cold acetonitrile. After vortexing and centrifugation, the supernatant was transferred into a new tube and evaporated to dryness. The samples were then reconstituted in 100 μL of water and methanol (v/v, 9:1). An aliquot of 10 μL of reconstituted solution was injected into UPLC/Triple TOF 5600^+ MS for metabolite identification.
Identification of Compound-3 metabolites was carried out using Acquity UPLC/Triple TOF 5600^+ system. Chromatographic separation for Compound-3 and its metabolites were achieved by an Acquity UPLC HSS T3 column (100 × 2.1 mm i.d., […]; Waters Corp.) maintained at 40 °C. The mobile phase was a mixture of 0.02% formic acid in 5 mM ammonium acetate (A) and methanol (B). The gradient elution was started from 2% B and maintained for 4 min, then increased linearly to 75% B over the next 4 min and maintained for 8 min. […] The flow rate was 0.4 mL/min and the eluent was monitored by UV detection at 280 nm.
For mass detection, a Triple TOF 5600^+ mass spectrometer (AB Sciex, Framingham, MA, USA) was operated in positive ion electrospray (ES-positive) mode with the source temperature at 500 °C and scan range from m/z 100 to 1000 Da. Other parameters were set as follows: ion spray voltage, 5500 V; decluttering potential, 80 V; curtain gas, 40 psi; ion source gas 1, 55 psi; and ion source gas 2, 50 psi. Collision energies of 25 and 65 eV were used for TOF MS and product ion scans, respectively, and a collision energy spread of 20 was used in the MS/MS analysis. Information-dependent acquisition (IDA), together with real-time multiple mass defect filter, was used to trigger acquisition of MS/MS spectra.

CYP4F2 = molecular target: T1, CYP4F2 (Homo sapiens, UniProt P78329); experiment: CYP4F2-mediated drug interaction (inhibition of CYP4F2); format: in vitro ADME; details: substrate pafuramidine 1.5 μM, CYP4F2 10 nM, 5 min, DB775 formation; read-out: IC50, inhibition of CYP4F2 mediated metabolism of pafuramidine
T1 construct: purchased Corning Gentest
T1 sequence (P78329 5-520): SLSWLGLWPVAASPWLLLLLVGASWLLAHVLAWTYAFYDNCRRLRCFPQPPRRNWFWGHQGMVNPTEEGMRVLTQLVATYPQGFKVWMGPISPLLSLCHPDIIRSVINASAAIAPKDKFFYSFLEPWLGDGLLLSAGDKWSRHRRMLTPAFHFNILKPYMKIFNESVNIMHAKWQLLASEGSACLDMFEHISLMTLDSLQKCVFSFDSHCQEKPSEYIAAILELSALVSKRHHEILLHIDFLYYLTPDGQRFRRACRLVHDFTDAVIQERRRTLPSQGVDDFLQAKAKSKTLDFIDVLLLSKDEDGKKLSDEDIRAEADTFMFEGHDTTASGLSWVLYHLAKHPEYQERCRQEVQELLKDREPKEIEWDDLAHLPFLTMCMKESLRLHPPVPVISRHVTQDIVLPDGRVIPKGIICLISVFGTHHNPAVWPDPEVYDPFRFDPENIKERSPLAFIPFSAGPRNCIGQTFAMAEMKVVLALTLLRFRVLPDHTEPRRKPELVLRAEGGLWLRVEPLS
Method: CYP4F2-mediated drug interactions were examined in two separate setting: pafuramidine as the substrate and Compound-3 as the inhibitor; and Compound-3 as the substrate and pafuramidine as the inhibitor. The reaction system contained 10 nM CYP4F2, 100 mM phosphate buffer (pH 7.4), 1 mM NADPH, and substrate (pafuramidine 1.5 μM or Compound-3 1 μM). Inhibitor (Compound-3 or pafuramidine) concentrations ranged from 0 to 10,000 nM. The incubation time was 5 min for pafuramidine and 10 min for Compound-3. Incubation temperature was 37 °C. LC-MS/MS analysis was performed as described above for the levels of DB775 or M4 (carboxylic acid metabolite of Compound-3).

[2] = system: CYP1A2, CYP2B6, CYP2C8, CYP2C9, CYP2C19, CYP2D6, CYP4A11 and CYP4F3; experiment: Reaction phenotyping with the rest of the recombinant CYP isozymes; format: in vitro ADME, human; details: 50 nM, 1 μM, NADPH
Method: Compound-3 was incubated separately with human cDNA-expressed cytochrome P450s (CYP1A2, CYP2B6, CYP2C8, CYP2C9, CYP2C19, CYP2D6, CYP3A4, CYP4A11, CYP4F2 and CYP4F3). The incubation mixtures contained individual CYP isoenzymes (50 nM), potassium phosphate buffer (100 mM, pH 7.4), NADPH (1 mM), and Compound-3 (1 µM). The final volume of the incubation mixture was 50 µL. Before the start of the incubation, reaction mixtures were warmed up at 37 °C for 10 min. The reaction was initiated with the addition of NADPH and the incubations were performed at 37 °C in a water bath. After 60 min of incubation, the reactions were terminated with an equal volume of ice-cold acetonitrile containing the internal standard. Control samples without NADPH but substrates were included. The samples were then centrifuged and aliquots of 10 μL of the supernatants were transferred onto LC-MS/MS for the analysis of Compound-3 and M4 (carboxylic acid) levels.

alkaline phosphatase = experiment: Hydrolysis of Compound-3 by alkaline phosphatase (gemcitabine formation); format: in vitro ADME; parameters: key to detected in matrix ALP: √: metabolites were detected by high-resolution mass spectrometry
Method: Compound-3 was incubated with alkaline phosphatase, and the linearity of gemcitabine formation as a function of time and protein concentration was first examined. The reaction mixtures consisted of alkaline phosphatase, 100 mM phosphate buffer (pH 7.4) and Compound-3 (10 μM). The final volume of the incubation mixture was 200 μL. The mixture was warmed up at 37 °C for 2 min prior to the initiation of the reaction with the addition of the enzyme. At specified time points, 25 μL of the incubation mixtures was added to 100 μL cold acetonitrile containing the internal standard to terminate the reaction. Levels of gemcitabine were determined by LC-MS/MS. […] Compound-3 was tested at concentrations ranging from 0 to 200 μM. Kinetic parameters of Compound-3 in alkaline phosphatase were calculated using GraphPad Prism (Version 6.0, GraphPad Software Inc., San Diego, CA) and nonlinear regression analysis. Equation used was as the following (the Michaelis-Menten equation):V = (Vmax × [S])/(Km + [S])(1) where V is the rate of metabolite formation, Vmax is the maximum velocity, Km is the Michaelis constant (substrate concentration at 0.5 Vmax), and [S] is the substrate concentration.

[3] = alkaline phosphatase 0.1 mg/mL protein, 60 min, 37 °C, Michaelis-Menten

## CCCCCCCCCCCCCCCCCCOCCOP(=O)(O)OCC1OC(n2ccc(N)nc2=O)C(F)(F)C1O (stereo not drawn) [Compound-3]
[1]
  detected in matrix HIM: √
CYP4F2
  IC50: 0.1 µM
[2]
  metabolism of Compound-3 by CYP isozyme: did not participate
Alkaline phosphatase; [3]
  Km: 57.2 µM
  Vmax of gemcitabine formation: 60.8 pmol/min/mg-protein
Alkaline phosphatase; incubation of Compound-3 with alkaline phosphatase, HRMS
  detected in matrix ALP: √
